Each structure is given as a SMILES string.

One experiment relates to primary astrocytes. The experiment is described as follows: High throughput screening for lactate secretion: acidification of extracellular medium (SNARF5). The class given is cell-based, mouse. The conditions noted are these: Mus musculus, Astrocyte, 1.5 h; Appendix I; primary screening, 10 uM, 90 min; relative to positive control; read-out: Score. On the procedure:
Primary cultures of cerebrocortical astrocytes were obtained from 1-2-day-old OF1 mouse pups (Charles River Laboratories). Briefly, cortices were isolated and minced in small pieces under a dissecting microscope. The cells were incubated for 30 min at 37° C. in a solution containing 20 U/ml of papain enzyme (Worthington Biochemical), L-cysteine 1 mM (Sigma), and 10 kU/ml DNase I (Worthington Biochemical) for an enzymatic dissociation. Papain activity was stopped by the addition of fetal calf serum (FCS) to the solution, and a single-cell suspension was then obtained by mechanical dissociation, which consisted in cells trituration in a DMEM (D7777, Sigma-Aldrich) medium (supplemented with 44 mm NaHCO3, and 10 ml/L antibiotic/antimycotic solution) containing 10% FCS. The cells were seeded at an average density of 6×10^4 cells/cm^2 in poly-D-lysine-coated 96, 12 or 6-well culture plates, depending on their use, and incubated at 37° C. in a humidified atmosphere containing 5% CO2/95% air. Culture medium was renewed twice per week. Cells were stimulated and harvested between DIV14 and DIV17, when confluence and cell growth were optimal.
Secretion of lactate in a high-throughput screening (HTS) fashion was measured indirectly through the acidification of extracellular medium. To this end, primary astrocytes grown in 96-well plates for 17 days were stimulated with the compounds as listed herein.
After washing the cells twice with stimulation medium (DMEM (D5030, Sigma), 3 mM NaHCO3 and 5 mM Glucose) at 37° C., cells were stimulated with the compounds at a final concentration of 10 uM (1% DMSO final) in 50 ul per well of stimulation medium supplemented with 10 uM of the extracellular pH sensor SNARF-5F %-(AND-6)-CAR (Life Technologies Corporation). Each compound was tested in two different plates for duplicates.
After 90 min stimulation, fluorescence was read at exc. (excitation) 480 nm/emm. (emission) 580 nm and at exc 480 nm/emm. 630 nm. The ratio of fluorescence between 630 nm and 580 emission values, which represents extracellular pH, was calculated.
In each plate, 8 wells were used for negative controls (DMSO) and 8 wells were used for positive controls (CCCP 2 uM in DMSO). Z prime values were calculated for each of the plates tested and values <0 were discarded.
The average and SD of compounds' values tested in duplicates were calculated, and compound was noted as HIT when the difference between compound's average and negative control's average was greater than three times the sum of compound's SD and negative controls' SD. Only scores greater than 40% were considered as lead hits for the CDC54K library; for the remaining libraries, all hits were considered. Scores are calculated as the % of activity compared to the positive control in each plate (which is 100%).
Primary screening hits were cherry picked on new plates and confirmed for SNARF5 effect, after having discarded those compounds that are fluorescent (exc. 480 nm/emm. 580 nm or 630 nm) before stimulation. Extracellular medium was next analyzed for extracellular lactate quantification for secondary screening.
Identification of lactate-enhancing drugs with high throughput screening (HTS) experiments on astrocytes primary cultures using extracellular pH dye (SNARF5F 5-(and 6)-carboxylic acid) for 90 min. The procedure is described in Material and Methods (2. Cell culture, 2.1. HTS for lactate secretion and 2.2. Extracellular lactate quantification).
The procedure was performed as follows: • Primary screening: acidification of the extracellular medium • Primary screening confirmation: acidification of the extracellular medium, removal of compounds with fluorescent activity at exc. 480 nm/emm. 580 nm or 630 nm. • Secondary screening: dosage of extracellular lactate
In the case of `OC1(c2ccccc2)C[N+](c2ccc(Cl)cc2)=C2CCCCN21` (stereo not drawn) [F0524-0488], the Emax at 10 µM is 51.2%.
Take `COc1ccc([N+]2=C3SCCCN3C(O)(c3cccc([N+](=O)[O-])c3)C2)cc1` (stereo not drawn) [K404-0277]: the Emax at 10 µM worked out at 0%.
As for `CCOc1ccc(C2(O)C[N+](c3cc(OC)ccc3OC)=C3CCCCCN32)cc1` (stereo not drawn) [K404-0860], the Emax at 10 µM was found to be 57.9%.
Consider `CN1CCC(OCCCNc2ncnc3c2CCC3)CC1` [T636-0181], for which the Emax at 10 µM stood at 22.8%.
With `Cc1nc2ccc(NS(=O)(=O)c3ccccc3F)cc2s1` [T5511047], the Emax at 10 µM was determined as 67%.
For the compound `COc1ccc(CN2CCN(c3ncnc4c3CCC4)CC2)cc1OC` [T636-2007], the Emax at 10 µM is 102%.
With `Cc1cccc([N+]2=C3SCCCN3C(O)(c3ccc(Cl)cc3)C2)c1` (stereo not drawn) [F0522-0533], the Emax at 10 µM is 55.7%.
Take `c1cncc(CCNc2ncnc3c2CCC3)c1` [T636-0085]: the Emax at 10 µM was determined as 28.4%.
Turning to `Cc1ccc(C(=O)N2CCCC(Nc3ncnc4c3CCC4)C2)cn1` (stereo not drawn) [T636-2144], the Emax at 10 µM worked out at 0%.
On to `COc1ccccc1[N+]1=C2CCCCCN2C(O)(c2ccc(F)cc2)C1` (stereo not drawn) [F0524-0611], for which the Emax at 10 µM worked out at 53.4%.
On to `CN(C)Cc1cccc(CNc2ncnc3sccc23)c1` [T6783542], for which the Emax at 10 µM turned out to be 85.7%.
In the case of `Cc1ccsc1C(=O)NC1CCN(c2ncnc3c2CCC3)C1` (stereo not drawn) [T636-1114], the Emax at 10 µM stood at 72.5%.
For the compound `Cc1cc(S(=O)(=O)NCc2ccncc2)c(Cl)cc1Cl` [T5581430], the Emax at 10 µM came to 47.2%.
`Cc1cccc([N+]2=C3CCCCN3C(O)(c3ccc(F)cc3)C2)c1C` (stereo not drawn) [K404-0685]: the Emax at 10 µM turned out to be 67.9%.
Consider `Cn1nccc1-c1csc(S(=O)(=O)Nc2ccc(F)cc2)c1` [L924-0760], for which the Emax at 10 µM worked out at 69.1%.
As to `COc1ccc(OC)c([N+]2=C3CCCCCN3C(O)(c3ccc([N+](=O)[O-])cc3)C2)c1` (stereo not drawn) [K404-0863], the Emax at 10 µM amounted to 0%.
Turning to `Cc1ccc(S(=O)(=O)N2CCSC2c2cccc([N+](=O)[O-])c2)c(C)c1` (stereo not drawn) [T5463709], the Emax at 10 µM amounted to 24.4%.
Same read-out and setting: under `CCn1nccc1-c1csc(S(=O)(=O)Nc2ccccc2OC)c1` [L924-1088] stands 78.5%.
For `COc1cccc(CNc2ncnc3c2CCC3)c1` [T636-0134], the Emax at 10 µM turned out to be 75.1%.
For the compound `c1coc(CNc2nc(-c3ccncc3)nc3c2CCC3)c1` [T636-0973], the Emax at 10 µM stood at 0%.
For the compound `Cc1nc(N2CCCC(C(=O)NCc3cccnc3)C2)c2c(C)c(C)oc2n1` (stereo not drawn) [F228-0856], the Emax at 10 µM was found to be 18.6%.
Turning to `Cc1oc2ncnc(N3CCCC(C(=O)NCc4cccnc4)C3)c2c1C` (stereo not drawn) [F228-0351], the Emax at 10 µM is 59.2%.
For the compound `COc1ccc(Cl)cc1S(=O)(=O)NCc1ccncc1` [F0376-0203], the Emax at 10 µM turned out to be 20.3%.
On the same count and under the same terms, the same measure for `CC(=O)c1ccc(NS(=O)(=O)c2cc(-c3noc(C4CCCC4)n3)cs2)cc1` [L287-1577]: 119%.
In the case of `Cc1cccc(NS(=O)(=O)c2cc(-c3ccnn3C)cs2)c1` [L924-0884], the Emax at 10 µM was 65.6%.
In the case of `O=C(Cc1n[nH]c(=O)c2ccccc12)Nc1cccc(Br)c1` [T5717474], the Emax at 10 µM is 21.7%.
On to `Cn1nc(CC(=O)Nc2cccc(C(=O)NC3CC3)c2)c2ccccc2c1=O` [T5543110], for which the Emax at 10 µM is 39.1%.
`Cc1nc(-c2cccc(NS(=O)(=O)c3ccc(N4CCCC4=O)cc3)c2)cs1` [T5599698]: the Emax at 10 µM amounted to 85.6%.
Consider `CC(=O)N1CCCc2cc(S(=O)(=O)NCc3ccccc3)ccc21` [G855-0210], for which the Emax at 10 µM is 20.6%.
Same read-out and setting: under `CCn1nccc1-c1csc(S(=O)(=O)Nc2cc(C)ccc2C)c1` [L924-0988] stands 52.7%; under `COc1ccccc1[N+]1=C2CCCCN2C(O)(c2ccc(F)cc2)C1` (stereo not drawn) [F0524-0338], 73.6%; under `Cc1ccc([N+]2=C3CCCCCN3C(O)(c3ccc([N+](=O)[O-])cc3)C2)cc1` (stereo not drawn) [K404-0828], 0%.
As to `Cn1nccc1C(=O)N1CCC(Nc2ncnc3c2CCC3)C1` (stereo not drawn) [T636-2425], the Emax at 10 µM was determined as 22%.
For `Cc1cccc([N+]2=C3CCCCCN3C(O)(c3ccc([N+](=O)[O-])cc3)C2)c1` (stereo not drawn) [K404-0914], the Emax at 10 µM was 0%.
For `CNC(=O)C1CCCN(c2ncnc3oc(C)c(C)c23)C1` (stereo not drawn) [F228-0541], the Emax at 10 µM is 15.3%.
With `O=S(=O)(Nc1ccc2[nH]ncc2c1)c1ccc(Cl)cc1F` [T5436375], the Emax at 10 µM came to 0%.
Turning to `O=S(=O)(NC1CCN(c2ncnc3c2CCC3)C1)c1ccccc1` (stereo not drawn) [T636-1250], the Emax at 10 µM was determined as 96.4%.
As for `Cc1ccc(S(=O)(=O)N2CCSC2c2ccc([N+](=O)[O-])cc2)c(C)c1` (stereo not drawn) [T5464782], the Emax at 10 µM is 27.7%.
For `COc1ccccc1[N+]1=C2CCCCCN2C(O)(c2cccc([N+](=O)O)c2)C1` (stereo not drawn) [K404-0842], the Emax at 10 µM worked out at 16.9%.
As for `CC(C)OCCCNc1ncnc2c1CCC2` [T636-0027], the Emax at 10 µM turned out to be 53.6%.
As for `CCc1ccc(S(=O)(=O)N2CCSC2c2ccc(OC)c(OC)c2)cc1` (stereo not drawn) [4052-4304], the Emax at 10 µM came out at 49.4%.
Consider `O=S(=O)(c1ccc(F)cc1)N1CCSC1c1ccccc1Cl` (stereo not drawn) [4052-4279], for which the Emax at 10 µM worked out at 15.6%.
As to `COc1ccc(C2(O)C[N+](c3cccc(C)c3)=C3CCCCN32)cc1` (stereo not drawn) [K404-0796], the Emax at 10 µM is 86.1%.
For `Cc1nc2c(c(Nc3cccc(C(F)(F)F)c3)n1)CCC2` [D278-0514], the Emax at 10 µM is 0%.
`O=C(NCc1ccccc1)NC1CCN(c2ncnc3c2CCC3)C1` (stereo not drawn) [T636-1210]: the Emax at 10 µM turned out to be 48.9%.
For the compound `CC(=O)N1CCCc2cc(S(=O)(=O)NCc3cccc(C(F)(F)F)c3)ccc21` [T6099519], the Emax at 10 µM was 27.6%.
For the compound `Cc1ccc(CNc2ncnc3c2CCC3)o1` [T636-0054], the Emax at 10 µM came to 55.3%.
Take `CC(=O)N1CCCc2cc(S(=O)(=O)NC(c3ccccc3)C(C)C)ccc21` (stereo not drawn) [T6067366]: the Emax at 10 µM was determined as 0%.
Take `COc1ccccc1Nc1nc(N2CCOCC2)c2ccccc2n1` [F3007-0009]: the Emax at 10 µM stood at 19.8%.
On the same count and under the same terms, the same measure for `COc1ccccc1[N+]1=C2CCCCCN2C(O)(c2ccccc2)C1` (stereo not drawn) [K404-0838]: 103%; for `O=C(c1ccc(Cl)s1)N1CCC(Nc2ncnc3c2CCC3)C1` (stereo not drawn) [T636-2391]: 93.2%; for `Cc1cccc([N+]2=C3CCCCCN3C(O)(c3ccc(F)cc3)C2)c1` (stereo not drawn) [K404-0910]: 72.6%.
Regarding `O=C(C1CC1)N1CCc2sc(S(=O)(=O)Nc3cccc(Cl)c3)cc2C1` [P025-0462], the Emax at 10 µM was 38.7%.
Regarding `Fc1ccc(Nc2nc(N3CCOCC3)c3ccccc3n2)cc1` [T0508-5193], the Emax at 10 µM was 19.5%.

The experiment is the same for the next values; noted with them: Mus musculus, Astrocyte, 1.5 h; Prestwick hits; 10 uM, 90 min; activity relative to positive control CCCP 2 uM; read-out: Score.
As to `CCCCOc1cc(C(=O)NCCN(CC)CC)c2ccccc2n1` [Dibucaine], the Emax at 10 µM was 6.12%.
Consider `Cc1cc(/C=C/c2ccc3cc(N(C)C)ccc3[n+]2C)c(C)n1-c1ccccc1` [Pyrvinium pamoate], for which the Emax at 10 µM stood at 99.1%.
On to `Clc1ccc2c(c1)CCc1cccnc1C2=C1CCNCC1` [Desloratadine], for which the Emax at 10 µM was found to be 6.08%.

Still in this experiment, the particulars now being: Mus musculus, Astrocyte, 1.5 h; Prestwick hits; 10 uM, 90 min; relative to positive control CCCP 2 uM; read-out: HTS Score (lactate).
Take `CCCCOc1cc(C(=O)NCCN(CC)CC)c2ccccc2n1` [Dibucaine]: the Emax at 10 µM worked out at 6.1%.
On to `Cc1cc(/C=C/c2ccc3cc(N(C)C)ccc3[n+]2C)c(C)n1-c1ccccc1` [Pyrvinium pamoate], for which the Emax at 10 µM was determined as 99.1%.
In the case of `Clc1ccc2c(c1)CCc1cccnc1C2=C1CCNCC1` [Desloratadine], the Emax at 10 µM came out at 6.1%.

These data come from patent US12274703B2, “Compositions and methods of treatment for neurological disorders comprising a dementia” (Gliapharm SA, priority 2017, dated 2025).
